Results taken from patent US8871767B2, “2-arylimidazo[1,2-B]pyridazine, 2-phenylimidazo[1,2-A]pyridine, and 2-phenylimidazo[1,2-A]pyrazine derivatives” (Hengrui (USA) Ltd., priority 2010, dated 2014).
Like-named read-outs stand apart in the source and are kept apart here.

Assays:
[1] = tested on: Hedgehog pathway activation on 10T1/2/Smo#3 cells (C3H10T1/2 cells transfected with human Smoothened receptor); assay: Hedgehog pathway activation on 10T1/2/Smo#3 cells measured by ALP activity; type: cell-based
How it was run: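 C3H10T1/2 cells stably expressing human Smoothened were activated with hShh-conditioned medium (10-20%) or 500 nM SAG, with test compounds present. Pathway block read as inhibited ALP activity (4-methylumbelliferyl phosphate fluorescence); viability checked by CellTiter-Blue. IC50 values reported.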

[2] = tested on: Hedgehog pathway activation (GLi-luciferase reporter) in Shh Light II reporter cells; assay: Hedgehog pathway activation on Shh Light II reporter cells measured by luciferase activity; type: cell-based
How it was run: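 Shh Light II reporter cells carrying a hedgehog-responsive GLi-luciferase reporter were stimulated either with 500 nM SAG, a direct Smoothened agonist, or with conditioned media containing human Sonic Hedgehog (hShh). Test compounds were evaluated for blocking this pathway activation, quantified by luciferase activity. Cell viability was monitored in parallel with the Celltiter-Blue® assay.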

[3] = Mus musculus, C3H 10T1/2, 10T1/2/Smo#3 cells, measured by ALP activity, read-out: ALP (IC50, inhibition of Hedgehog pathway activation)
[4] = Mus musculus, Shh Light II, hShh activation, read-out: Shh (IC50, inhibition of Hedgehog pathway activation)
[5] = Mus musculus, C3H 10T1/2, 10T1/2/Smo#3 cells, hShh activation, ALP activity, read-out: 10T1/2/Smo#3 ALP activity (hShh Activation)
[6] = Mus musculus, Shh Light II, SAG activation (500 nM SAG), read-out: Shh Light II luciferase activity (SAG activation)
[7] = Mus musculus, Shh Light II, hShh activation, read-out: Shh Light II luciferase activity (hShh activation)

| SMILES | IC50 [1, 3] | IC50 [2, 4] | IC50 ([1]; 10T1/2/Smo#3 cells, measured by ALP activity, read-out: ALP (IC50, inhibition of Hedgehog pathway activation)) | IC50 ([2]; hShh activation, read-out: Shh (IC50, inhibition of Hedgehog pathway activation)) | IC50 [1, 5] | IC50 [2, 6] | IC50 [2, 7] |
| --- | --- | --- | --- | --- | --- | --- | --- |
| CC1CCCCC1Oc1ccc2nc(-c3ccc(C(F)(F)F)c(NC(=O)C(C)(C)C)c3)cn2n1 (stereo not shown) [Example 307, N-(5-(6-(2-methylcyclohexyloxy)imidazo[1,2-b]pyridazin-2-yl)-2-(trifluoromethyl)phenyl)pivalamide] | 400 nM | 352 nM | – | – | – | – | – |
| CNC1CCN(c2ccc3nc(-c4ccc(C)c(NC(=O)C(C)(C)C)c4)cn3n2)C1 (stereo not shown) [Example 473, N-(2-methyl-5-(6-(3-(methylamino)pyrrolidin-1-yl)imidazo[1,2-b]pyridazin-2-yl)phenyl)pivalamide] | – | – | 93 nM | 77 nM | – | – | – |
| CCOC1CCN(c2ccc3nc(-c4ccc(C(F)(F)F)c(NC(=O)C(C)(C)C)c4)cn3n2)CC1 [Example 367, N-(5-(6-(4-ethoxypiperidin-1-yl)imidazo[1,2-b]pyridazin-2-yl)-2-(trifluoromethyl)phenyl)pivalamide] | 343 nM | 312 nM | – | – | – | – | – |
| CCOC(=O)COc1ccc(-c2ccc3nc(-c4ccc(C)c(NC(=O)C(C)(C)C)c4)cn3n2)c(C(F)(F)F)c1 [Example 411, ethyl 2-(4-(2-(4-methyl-3-pivalamidophenyl)imidazo[1,2-b]pyridazin-6-yl)-3-(trifluoromethyl)phenoxy)acetate] | 679 nM | 251 nM | – | – | – | – | – |
| CCOc1ccc2nc(-c3ccc(C(F)(F)F)c(NC(=O)C4CC4)c3)cn2n1 [Example 186, N-(5-(6-ethoxyimidazo[1,2-b]pyridazin-2-yl)-2-(trifluoromethyl)phenyl)cyclopropanecarboxamide] | 8380 nM | > 10000 nM | – | – | – | – | – |
| Cc1c(-c2ccccc2)nc2ccc(N3CCN(C(=O)Cc4ccccc4)CC3)nn12 [Example 155, 1-(4-(3-methyl-2-phenylimidazo[1,2-b]pyridazin-6-yl)piperazin-1-yl)-2-phenylethanone] | 1270 nM | 2100 nM | – | – | 300 to 3000 nM | < 300 nM | 300 to 3000 nM |
| CC(C)(C)C(=O)Nc1cc(-c2cn3nc(-c4cncc5ccccc45)ccc3n2)ccc1C(F)(F)F [Example 385, N-(5-(6-(isoquinolin-4-yl)imidazo[1,2-b]pyridazin-2-yl)-2-(trifluoromethyl)phenyl)pivalamide] | 1380 nM | 778 nM | – | – | 300 to 3000 nM | 300 to 3000 nM | 300 to 3000 nM |
| CCOc1nn2cc(-c3ccc(C(F)(F)F)c(NC(=O)C(C)(C)C)c3)nc2c(C)c1C [Example 201, N-(5-(6-ethoxy-7,8-dimethylimidazo[1,2-b]pyridazin-2-yl)-2-(trifluoromethyl)phenyl)pivalamide] | 869 nM | 402 nM | – | – | – | – | – |
| O=C(CC(F)(F)F)Nc1cc(-c2cn3nc(-c4cccnc4C(F)(F)F)ccc3n2)ccc1Cl [Example 675, N-(2-chloro-5-(6-(2-(trifluoromethyl)pyridin-3-yl)imidazo[1,2-b]pyridazin-2-yl)phenyl)-3,3,3-trifluoropropanamide] | 777 nM | 99 nM | – | – | – | – | – |
| CC(C)(C)C(=O)Nc1cc(-c2cn3nc(-c4cccnc4C(F)(F)F)ccc3n2)ccc1C(F)(F)F [Example 292, N-(2-(trifluoromethyl)-5-(6-(2-(trifluoromethyl)pyridin-3-yl)imidazo[1,2-b]pyridazin-2-yl)phenyl)pivalamide] | 19 nM | 47 nM | – | – | – | – | – |
| Cc1ccc(-c2cn3nc(-c4ccc(C#N)cc4C(F)(F)F)ccc3n2)cc1NC(=O)C(C)(C)C [Example 478, N-(5-(6-(4-cyano-2-(trifluoromethyl)phenyl)imidazo[1,2-b]pyridazin-2-yl)-2-methylphenyl)pivalamide] | 327 nM | 80 nM | – | – | – | – | – |
| CCOc1ccc2nc(-c3ccc(C(F)(F)F)c(C(=O)NC(C)(C)C)c3)cn2n1 [Example 211, N-tert-butyl-5-(6-ethoxyimidazo[2,1-f]pyridazin-2-yl)-2-(trifluoromethyl)benzamide] | 6960 nM | 1020 nM | – | – | – | – | – |
| Cc1ccc(-c2cn3nc(-c4ccc(C(=O)O)cc4C(F)(F)F)ccc3n2)cc1NC(=O)C(C)(C)C [Example 479, 4-(2-(4-methyl-3-pivalamidophenyl)imidazo[1,2-b]pyridazin-6-yl)-3-(trifluoromethyl)benzoic acid] | 86 nM | 6 nM | – | – | < 300 nM | < 300 nM | < 300 nM |
| Cc1c(-c2cccnc2F)nn2cc(-c3ccc(C(F)(F)F)c(NC(=O)C(C)(C)C)c3)nc2c1C [Example 199, N-(5-(6-(2-fluoropyridin-3-yl)-7,8-dimethylimidazo[1,2-b]pyridazin-2-yl)-2-(trifluoromethyl)phenyl)pivalamide] | 111 nM | 337 nM | – | – | – | – | – |
| Cc1ccc(-c2cn3nc(N4CCN(Cc5ccc(F)cc5)CC4)ccc3n2)cc1NC(=O)C(C)(C)C [Example 123, N-(5-(6-(4-(4-fluorobenzyl)piperazin-1-yl)imidazo[1,2-b]pyridazin-2-yl)-2-methylphenyl)pivalamide] | 488 nM | 712 nM | – | – | 300 to 3000 nM | 300 to 3000 nM | 300 to 3000 nM |
| CC(C)(C)C(=O)Nc1cc(-c2cn3nc(-c4cccnc4C(F)(F)F)ccc3n2)ccc1C1CC1 [Example 644, N-(2-cyclopropyl-5-(6-(2-(trifluoromethyl)pyridin-3-yl)imidazo[1,2-b]pyridazin-2-yl)phenyl)pivalamide] | 15 nM | 72 nM | – | – | – | – | – |
| CCOc1ccc2nc(-c3ccc(C(F)(F)F)c(NC(=O)C(C)(C)C(F)(F)F)c3)cn2n1 [Example 188, N-(5-(6-ethoxyimidazo[1,2-b]pyridazin-2-yl)-2-(trifluoromethyl)phenyl)-3,3,3-trifluoro-2,2-dimethylpropanamide] | 875 nM | 1400 nM | – | – | – | – | – |
| CC(C)(C)C(=O)Nc1cc(-c2cn3nc(OC4CCC4)ccc3n2)ccc1C(F)(F)F [Example 182, N-(5-(6-cyclobutoxyimidazo[1,2-b]pyridazin-2-yl)-2-(trifluoromethyl)phenyl)pivalamide] | 1860 nM | 1740 nM | – | – | – | – | – |
| COc1ccc2nc(-c3ccc(Cl)c(NC(=O)CC(C)C(F)(F)F)c3)cn2n1 (stereo not shown) [Example 120, N-(2-chloro-5-(6-methoxyimidazo[1,2-b]pyridazin-2-yl)phenyl)-4,4,4-trifluoro-3-methylbutanamide] | 6280 nM | > 10000 nM | – | – | – | – | – |
| CCOc1ccc2nc(-c3ccc(C(F)(F)F)c(-c4ccccn4)c3)cn2n1 [Example 218, 6-ethoxy-2-(3-(pyridin-2-yl)-4-(trifluoromethyl)phenyl)imidazo[1,2-b]pyridazine] | 2120 nM | 1720 nM | – | – | 300 to 3000 nM | 3000 to 30000 nM | 300 to 3000 nM |
| CCOc1ccc2nc(-c3ccc(C(F)(F)F)c(S(=O)(=O)NC(C)(C)C)c3)cn2n1 [Example 216, N-tert-butyl-5-(6-ethoxyimidazo[1,2-b]pyridazin-2-yl)-2-(trifluoromethyl)benzenesulfonamide] | 8280 nM | 8570 nM | – | – | – | – | – |
| CC(C)(C)C(=O)Nc1cc(-c2cn3nc(-c4ccccc4F)ccc3n2)ccc1OC(F)(F)F [Example 248, N-(5-(6-(2-fluorophenyl)imidazo[1,2-b]pyridazin-2-yl)-2-(trifluoromethoxy)phenyl)pivalamide] | 231 nM | – | – | – | < 300 nM | 300 to 3000 nM | 300 to 3000 nM |
| Cc1ccc(-c2cn3nc(SCc4ccccc4)ccc3n2)cc1NC(=O)C(C)(C)C [Example 129, N-(5-(6-(benzylthio)imidazo[1,2-b]pyridazin-2-yl)-2-methylphenyl)pivalamide] | 789 nM | 1770 nM | – | – | – | – | – |
| CC(C)(C)C(=O)Nc1cc(-c2cn3nc(OCCN4CCOCC4)ccc3n2)ccc1C(F)(F)F [Example 306, N-(5-(6-(2-morpholinoethoxy)imidazo[1,2-b]pyridazin-2-yl)-2-(trifluoromethyl)phenyl)pivalamide] | 446 nM | 402 nM | – | – | – | – | – |
| Cc1cccnc1-c1ccc2nc(-c3ccc(C(F)(F)F)c(NC(=O)C(C)(C)C)c3)cn2n1 [Example 152, N-(5-(6-(3-methylpyridin-2-yl)imidazo[1,2-b]pyridazin-2-yl)-2-(trifluoromethyl)phenyl)pivalamide] | 590 nM | 314 nM | – | – | – | – | – |
| Cc1ccc(-c2cn3nc(Cl)ccc3n2)cc1NC(=O)C(C)(C)C(F)(F)F [Example 122, N-(5-(6-chloroimidazo[1,2-b]pyridazin-2-yl)-2-methylphenyl)-3,3,3-trifluoro-2,2-dimethylpropanamide] | 1940 nM | 3040 nM | – | – | – | – | – |
| CC(C)(C)C(=O)Nc1cc(-c2cn3nc(N4CCS(=O)(=O)CC4)ccc3n2)ccc1C(F)(F)F [Example 287, N-{5-[6-(1,1-dioxidothiomorpholin-4-yl)imidazo[1,2-b]pyridazin-2-yl]-2-(trifluoromethyl)phenyl}-2,2-dimethylpropanamide] | 462 nM | 491 nM | – | – | – | – | – |
| Cc1ccc(-c2cn3nc(-c4ccc(C(=N)N)cc4C(F)(F)F)ccc3n2)cc1NC(=O)C(C)(C)C [compound 543, N-(5-(6-(4-carbamimidoyl-2-(trifluoromethyl)phenyl)imidazo[1,2-b]pyridazin-2-yl)-2-methylphenyl)pivalamide] | 7 nM | 4 nM | – | – | – | – | – |
